Data taken from patent US9180159B2, “Use of cell-permeable peptide inhibitors of the JNK signal transduction pathway for the treatment of chronic or non-chronic inflammatory digestive diseases” (Xigen Inflammation Ltd., priority 2008, dated 2015).
Non-standard residues stand in square brackets, D forms with d.

Columns and labels:
[1] = test system: TC-3 cell cultures; assay: Cellular import and intracellular persistence of fluorescein-labeled peptides in TC-3 cells; assay type: cell-based; conditions: 1 μM
Protocol: The ability of the L- and D-enantiomeric forms of TAT and TAT-IB1(s) peptides (“TAT-IB peptides”) to enter cells was evaluated. L-TAT, D-TAT, L-TAT-IB1(s), and D-TAT-IB1(s) peptides [SEQ ID NOs: 5, 6, 9 and 12, respectively] were labeled by N-terminal addition of a glycine residue conjugated to fluorescein. Labeled peptides (1 μM) were added to TC-3 cell cultures, which were maintained as described in Example 3. At predetermined times cells were washed with PBS and fixed for five minutes in ice-cold methanol-acetone (1:1) before being examined under a fluorescence microscope. Fluorescein-labeled BSA (1 μM, 12 moles/mole BSA) was used as a control.
Little to no signal was present at 48 hours.

[2] = test system: TNBS-induced colitis; assay: TNBS-induced colitis in mice (FIG. 13); assay type: in vivo; conditions: subcutaneous, 50 and 100 mg/kg
Description: JNK is activated in macrophages and lymphocytes of patients with inflammatory bowel disease, a response correlated with increased TNFa, IL-6 and IFNg production in lesions.

[3] = test system: Primary cultured macrophages; assay: Incorporation of XG-102 into primary cultured macrophages, detected with a specific antibody; assay type: cell-based; conditions: incubated with peptide and extensively washed
Protocol: FIG. 8 Primary cultured macrophages were incubated with XG-102 (SEQ ID NO: 11) and extensively washed.

[4] = test system: recombinant JNK1, JNK2 and JNK3; assay: Solid phase kinase assay, phosphorylation of c-Jun, ATF2 and Elk1 by recombinant JNKs; assay type: biochemical; conditions: GST-Jun (aa 1-73), 0-250 μM dosage study
Protocol: The effects of the peptides on JNKs-mediated phosphorylation of their target transcription factors were investigated in vitro. Recombinant and non activated JNK1, JNK2 and JNK3 were produced using a TRANSCRIPTION AND TRANSLATION rabbit reticulocyte lysate kit (Promega) and used in solid phase kinase assays with c-Jun, ATF2 and Elk1, either alone or fused to glutathione-S-transferase (GST), as substrates. Dose response studies were performed wherein L-TAT or L-TAT-IB1(s) peptides (0-25 μM) were mixed with the recombinant JNK1, JNK2, or JNK3 kinases in reaction buffer (20 mM Tris-acetate, 1 mM EGTA, 10 mM p-nitrophenyl-phosphate (pNPP), 5 mM sodium pyrophosphate, 10 mM p-glycerophosphate, 1 mM dithiothreitol) for 20 minutes. The kinase reactions were then initiated by the addition of 10 mM MgCl2 and 5 pCi ^33P-dATP and 1 μg of either GST-Jun (aa 1-89), GST-AFT2 (aa 1-96) or GST-ELK1 (aa 307-428). GST-fusion proteins were purchased from Stratagene (La Jolla, Calif.).
Ten μL of glutathione-agarose beads were also added to the mixture. Reaction products were then separated by SDS-PAGE on a denaturing 10% polyacrylamide gel. Gels were dried and subsequently exposed to X-ray films (Kodak). […] The ability of D-TAT, D-TAT-IB1(s) and L-TAT-IB1(s) peptides (0-250 μM dosage study) to inhibit GST-Jun (aa 1-73) phosphorylation by recombinant JNK1, JNK2, and JNK3 by were analyzed as described above. Overall, D-TAT-IB1(s) peptide decreased JNK-mediated phosphorylation of c-Jun, but at levels approximately 10-20 fold less efficiently than L-TAT-IB1(s).

[5] = test system: TC-3 cells; assay: IL-1 induced pancreatic beta-cell death in TC-3 cells treated with peptides; assay type: cell-based; conditions: one single addition 1 μM
Protocol: Inhibition of IL-1 induced pancreatic beta-cell death by the D-TAT-IB1(s) peptide was analyzed. TC-3 cells were incubated as described above for 30 minutes with one single addition of the indicated peptides (1, μM), then IL-1 (10 ng/ml) was added.
Apoptotic cells were then counted after two days of incubation with IL-1 by use of Propidium Iodide and Hoechst 33342 nuclear staining. A minimum of 1,000 cells were counted for each experiment.
Long term inhibition of IL-1P induced cell-death by the D-TAT-IB1 peptide was also analyzed. TC-3 cells were incubated as above for 30 minutes with one single addition of the indicated peptides (1 μM), then IL-1 (10 ng/ml) was added, followed by addition of the cytokine every two days. Apoptotic cells were then counted after 15 days of incubation with IL-1 by use of propidium iodide and Hoechst 33342 nuclear staining. […] A minimum of 1.000 cells were counted for each experiment.

[6] = test system: THP-1 cells; assay: LPS-induced cytokine and chemokine release in THP-1 cells; assay type: cell-based
Description: (§1) XG-102 (SEQ ID NO:11) inhibits cytokine release in both myeloid and lymphoid cell lines, reducing LPS-induced TNFa, IL-6 and MCP-1 release in THP-1 cells (Panels A-C) and PMA & ionomycin-induced IFNg, IL-6 and IL-2 production in Jurkat cells (Panels D-F).

[7] = test system: Jurkat cells; assay: PMA & ionomycin-induced cytokine production in Jurkat cells; assay type: cell-based
Description: as §1

[8] = test system: murine macrophages; assay: LPS-induced cytokine release in murine macrophages; assay type: cell-based
[9] = test system: TNBS-induced colitis; assay: TNBS-induced colitis (IBD study) in BALB/c mice, Example 12; assay type: in vivo; conditions: for clinical score: XG-102 any dose, route or schedule, Sulfasalazine 10 mg/kg PO daily
Protocol: b) Constitution of test groups and dose levels • The table below lists the experimental groups comprising the study.
c) Test Procedures • Colitis was induced by administration of TNBS […], as a single or repeated daily doses (see above).
d) Observations and Examinations • i) Clinical signs • Throughout the duration of the above experiment, careful clinical examinations were carried out and recorded. Observations included changes external appearance, e.g. of the skin, fur, eyes, mucous membranes, occurrence of secretions and excretions (e.g. diarrhea), and autonomic activity. Changes in gait, posture and response to handling, as well as the presence of bizarre behavior, tremors, convulsions, sleep and coma were also noted. • ii) Body weights • Determination of individual body weight of animals was made on a daily basis. • iii) Clinical assessment of colitis • Body weight, stool consistency and bleeding per rectum were all recorded daily and served as the parameters of disease severity score:
• iv) Gross pathology of the colon • On the last day of the experiment, animals were euthanized and the colon was removed for gross pathology evaluation according to the following score: […]

[10] = test system: primary lymphoid and myeloid cells; assay: Cytotoxicity in primary cells (FIG. 12 Panel F); assay type: cell-based, murine
[11] = test system: murine T cells; assay: PMA & ionomycin-induced cytokine production in murine T cells; assay type: cell-based
[12] = test system: JNK; conditions: JBDs; Dickens et al. Science 277: 693 (1997); cited from earlier work
[13] = test system: transient global ischemia; conditions: Carboni et al. 2004; cited from earlier work
[14] = test system: primary embryonic cultures and differentiated PC12 cells; conditions: at dosages that inhibit activation of JNKs; after trophic withdrawal; cited from earlier work
[15] = mice treated with 1-methyl-4-phenyl tetrahydropyridine; cited from earlier work
[16] = test system: cultured chick embryonic dorsal root ganglion, sympathetic, ciliary and motor neurons; conditions: Borasio et al. 1998; cited from earlier work

For “NH2-GRKKRRQRRR-COOH (H-GRKKRRQRRR-OH) [L-TAT]”, the entry into cells [1] was “efficiently and rapidly (less than five minutes) entered cells”.

With “NH2-DQSRPVQPFLNLTTPRKPRPPRRRQRRKKRG-COOH (H-[dD][dQ][dS][dR][dP][dV][dQ][dP][dF][dL][dN][dL][dT][dT][dP][dR][dK][dP][dR][dP][dP][dR][dR][dR][dQ][dR][dR][dK][dK][dR]G-OH) [XG-102]” the DAI [2] was “diminishing”, the “protection from TNBS-induced colitis” value [2] was “protects mice from TNBS-induced colitis” and the rectal bleeding [2] was “diminishing”. The weight loss [2] was “diminishing”, the “incorporation into primary macrophages” value [3] was “strongly incorporated” and the entry into cells [1] was “efficiently and rapidly (less than five minutes) entered cells”. For the same compound, the “decrease of JNK-mediated phosphorylation of c-Jun, fold less efficient than L-TAT-IB1(s)” value [4] was 10-20 fold, the “long term protection from IL-1 induced cell-death, 15 days” value ([5]; IL-1 10 ng/ml every two days) was “able to confer long term (15 day) protection” and the “LPS-induced IL-6 release” value [6] was “reducing”. The “LPS-induced MCP-1 release” value [6] was “reducing”, the “LPS-induced TNFa release” value [6] was “reducing” and the “PMA & ionomycin-induced IFNg production” value [7] was “reducing”. The “PMA & ionomycin-induced IL-2 production” value [7] was “reducing”, the “PMA & ionomycin-induced IL-6 production” value [7] was “reducing” and the “LPS-induced IL-6 release” value [8] was “reducing”. For the same compound, the “LPS-induced Rantes release” value [8] was “reducing”, the “LPS-induced TNFa release” value [8] was “reducing” and the clinical signs ([9]; 0.01-1000 μg/kg SC or PO, single or daily for 7 days) was “No abnormalities were observed”. For the same compound, the “disease recovery (conclusion)” value ([9]; SC or PO) was “active in enhancing diseases recovery”, the clinical score [9] was “an effect equivalent to or better than the one observed with the commonly used reference drug sulfasalazine” and the “body weights (TNBS induced weight loss)” value ([9]; mouse, in vivo) was “either prevented the weight loss or ameliorated the symptoms and supported recovery”. For the same compound, the mortality rate ([9]; whole study) was “No mortality was recorded”, the “cytotoxicity at concentrations inhibiting cytokine release” value [10] was “non-cytotoxic concentrations” and the “PMA & ionomycin-induced IFNg production” value [11] was “reducing”. The “PMA & ionomycin-induced TNFa production” value [11] was “reducing”.

For `O=C(O)c1cc(/N=N/c2ccc(S(=O)(=O)Nc3ccccn3)cc2)ccc1O` [Sulfasalazine, reference compound], the clinical score [9] was “reduction in the clinical score” and the “gross pathology score of the colon” value ([9]; end of study, 10 mg/kg PO daily) was “effective in reducing the gross pathology completely”.

In the case of “NH2-IPSPSVEEPHKHRPTTLRLTTLGAQDS-COOH (H-IPSPSVEEPHKHRPTTLRLTTLGAQDS-OH) [IB2-long]”, the “efficiency in binding JNK relative to c-Jun or ATF2” value [12] is given as “approximately 100 fold”.

In the case of “Fluorescein-labeled BSA: Fluorescein-labeled BSA (1 μM, 12 moles/mole BSA) used as a control [reference compound]”, the entry into cells [1] is reported as “did not enter the cells”.

With “NH2-RRRQRRKKRG-COOH (D-amino acids; Description of sequence Peptide D-TAT (see Table 1))” the entry into cells [1] was “efficiently and rapidly (less than five minutes) entered cells”.

For `N#CC(c1ccnc(NCCc2cccnc2)n1)c1nc2ccccc2s1` (stereo not shown) [AS601245], the “delayed loss of hippocampal CA1 neurons” value [13] is listed as “significant protection”.

For `CCSCc1ccc2c(c1)c1c3c(c4c5cc(CSCC)ccc5n5c4c1n2[C@H]1C[C@](O)(C(=O)OC)[C@]5(C)O1)CNC3=O` [CEP-1347], the neuronal survival [14] is listed as “promotes neuronal survival”, the neuronal survival [15] is listed as “promotes neuronal survival” and the “long term-survival of neurons” value [16] is listed as “promote long term-survival”.

For “NH2-PGTGCGDTYRPKRPTTLNLFPQVPRSQDT-COOH (H-PGTGCGDTYRPKRPTTLNLFPQVPRSQDT-OH) [IB1-long]”, the “efficiency in binding JNK relative to c-Jun or ATF2” value [12] is listed as “approximately 100 fold”.

In the case of “NH2-TDQSRPVQPFLNLTTPRKPRYTDPPRRRQRRKKRG-COOH (HELM PEPTIDE1{[dT].[dD].[dQ].[dS].[dR].[dP].[dV].[dQ].[dP].[dF].[dL].[dN].[dL].[dT].[dT].[dP].[dR].[dK].[dP].[dR].[dY].[dT].[dD].[dP].[dP].[dR].[dR].[dR].[dQ].[dR].[dR].[dK].[dK].[dR].G}$$$$V2.0; SMILES CC(C)C[C@@H](NC(=O)[C@@H](Cc1ccccc1)NC(=O)[C@H]1CCCN1C(=O)[C@@H](CCC(N)=O)NC(=O)[C@H](NC(=O)[C@H]1CCCN1C(=O)[C@@H](CCCNC(=N)N)NC(=O)[C@@H](CO)NC(=O)[C@@H](CCC(N)=O)NC(=O)[C@@H](CC(=O)O)NC(=O)[C@H](N)[C@H](C)O)C(C)C)C(=O)N[C@H](CC(N)=O)C(=O)N[C@H](CC(C)C)C(=O)N[C@@H](C(=O)N[C@@H](C(=O)N1CCC[C@@H]1C(=O)N[C@H](CCCNC(=N)N)C(=O)N[C@H](CCCCN)C(=O)N1CCC[C@@H]1C(=O)N[C@H](CCCNC(=N)N)C(=O)N[C@H](Cc1ccc(O)cc1)C(=O)N[C@@H](C(=O)N[C@H](CC(=O)O)C(=O)N1CCC[C@@H]1C(=O)N1CCC[C@@H]1C(=O)N[C@H](CCCNC(=N)N)C(=O)N[C@H](CCCNC(=N)N)C(=O)N[C@H](CCCNC(=N)N)C(=O)N[C@H](CCC(N)=O)C(=O)N[C@H](CCCNC(=N)N)C(=O)N[C@H](CCCNC(=N)N)C(=O)N[C@H](CCCCN)C(=O)N[C@H](CCCCN)C(=O)N[C@H](CCCNC(=N)N)C(=O)NCC(=O)O)[C@H](C)O)[C@H](C)O)[C@H](C)O) [D-TAT-IB1]”, the “IL-1 induced apoptosis after two days” value ([5]; IL-1 10 ng/ml) is reported as “decreased IL-1 induced apoptosis to a similar extent as L-TAT-IB peptides”.
